Measurements from patent US20260144815A1, “BLOOD COAGULATION TIME SHORTENING AGENT FOR BLOOD SPECIMEN DEFICIENT IN COAGULATION FACTOR XII” (SEKISUI MEDICAL CO., LTD., priority 2022, published 2026).

System: FXII-deficient specimens
Assay: Test 2: APTT coagulation time measurement of FXII-deficient specimens, zinc chloride basic prescription
Format: biochemical, human
Details: metal salt used instead of zinc chloride in combination with the polymer
Description: The following specimens were used: • FXII-deficient specimens (specimens derived from FXII-deficient patients, N=3).
The prescription was the same as that in the test 1 except that copper sulfate pentahydrate in the first reagent (R1) was changed to zinc chloride.
In the control, LIPIDURE (R) was not added.
Test reagents 5-1 to 5-3: zinc chloride in R1 of the basic prescription was changed to the metal salt compound shown in Table 5, and LIPIDURE (R)-BL205 was further added. As the control, the test reagent 4-1 was used.
R1 and R2 were prepared by the same procedure as in the test 1, the coagulation time (APTT) was measured, and the variation rate (%) of APTT with the test reagent with respect to the control was determined.

Structure (SMILES)	coagulation time of FXII-deficient specimens
O.O.O.O.[Cl][In]([Cl])[Cl] [indium (III) chloride tetrahydrate]	further shortened
O.O.O.O.[Cl][Mn][Cl] [manganese (II) chloride tetrahydrate]	further shortened
